In US20240016861A1, “COMBINATION THERAPY FOR TREATING OR PREVENTING CANCER” (4D Pharma Research Limited, priority 2018, published 2024):

Legend:
[1] = test system: immature dendritic cells; test: Cytokine production in immature dendritic cells; format: cell-based; conditions: compared to the negative control, MRX518 10^7/ml, LPS 100 ng/ml, FIG. 4
Method: A monocyte population was isolated from peripheral blood mononuclear cells (PBMCs). The monocyte cells were subsequently differentiated into immature dendritic cells. The immature dendritic cells were plated out at 200,000 cells/well and incubated with MRX518 at a final concentration of 10^7/ml, with the optional addition of LPS at a final concentration of 100 ng/ml. The negative control involved incubating the cells with RPMI media alone and positive controls incubated the cells with LPS at a final concentration of 100ng/ml. The cytokine content of the cells was then analysed.

[2] = test system: RENCA tumour cells; test: Antitumor activity, RENCA model; format: in vivo, mouse; conditions: D18 and D22, compared to untreated and vehicle groups, FIG. 3B
Method: Treatment schedule—The start of first dosing was considered as D0. On D0, non-engrafted mice were randomized according to their individual body weight into groups of 9 mice using Vivo manager® software (Biosystemes, Couternon, France). On D0, the mice received vehicle (culture medium) or bacterial strain (2×10^8 in 200 μL, PO). On D14, all mice were engrafted with RENCA tumour cells injected SC into the ventral surface of the lower flank as described below. Treatment with anti-CTLA-4 (10 mg/kg, IP) and anti-PDL1 (clone 10F.9G2, 10 mg/kg) was initiated when tumours reached a volume of 50-70 mm3.
Orthotopic induction of RENCA tumor cells in animals by SC injection—On D14, one million (1×10^6) RENCA tumor cells in 50 ΞL RPMI 1640 medium were transplanted via SC injection into the ventral surface of the lower flank of mice.
Euthanasia - Each mouse was euthanized when it reached a humane endpoint as described in section below, or after a maximum of 6 weeks post start of dosing.
Evaluation of tumour burden at euthanasia—At the time of termination, tumours were collected and their volume evaluated.
Clinical monitoring—The length and width of the tumour was measured twice a week with callipers and the volume of the tumour was estimated by this formula [52]: […]

Row | Compound | level of IL-6 [1] | level of TNF-α [1] | tumour size [2]
1 | lipopolysaccharide [LPS] | increase | increase | –
2 | CC(=O)O[C@H]1C(=O)[C@@]2(C)[C@H]([C@H](OC(=O)c3ccccc3)[C@]3(O)C[C@H](OC(=O)[C@H](O)[C@@H](NC(=O)c4ccccc4)c4ccccc4)C(C)=C1C3(C)C)[C@]1(OC(C)=O)CO[C@@H]1C[C@@H]2O [Paclitaxel] | – | – | (almost) complete reduction
